Assays:
PKCδVIII = assay: RT-PCR with human PKCδ primers in primary neuronal cells from hippocampus; type: cell-based; details: RA about 24 h
Procedure: FIG. 2 is a series of images indicating the expression of PKCδVIII. (a) an image showing that both PKCδI and PKCδVIII were detected and the levels of PKCδVIII increased with retinoic acid treatment. Primary neuronal cells from hippocampus were treated with RA for about 24 h. Total RNA was extracted and RT-PCR performed with primers described in FIG. 1 which detect both PKCδI and PKCδVIII simultaneously. (b) an image showing that the expression of PKCδVIII is tissue-specific with the highest levels seen in the fetal brain. Human fetal tissue specific cdNAs were used in PCR analysis using PKCδVIII-specific primers. (i) Liver (ii) kidney (iii) heart (iv) spleen (v) brain. About five percent products were separated on PAGE and detected by silver nitrate staining […]
Using PKCδ primers, PKCδI and PKCδVIII are detected simultaneously: PKCδI is 368 bp and PKCδVIII is 461 bp. […] About 5% of products were resolved on 6% PAGE gels and detected by silver staining. The PCR reaction was optimized for linear range amplification to allow for quantification of products. […]
The inventors looked for the expression of PKCδ isozymes in primary neuronal cells to verify the expression pattern of PKCδVIII. […] PKCδI and PKCδVIII isoforms were detected and the levels of PKCδVIII increased with retinoic acid treatment (FIG. 2a). PKCδVIII was not detected in aorta smooth muscle cells or skeletal muscle cells (data not shown). […]

A1 = assay: Apoptosis micro-array (SuperArray, real-time RT-PCR) in NT2 cells; type: cell-based, human; details: RA about 24 h vs control
Source text: (§1) FIG. 4 is a 3D profile of the results from the apoptosis micro-array. The graph represents an average of control and RA (1 day) samples carried out in triplicate. The average ΔCt=Ct(gene of interest)−Ct(housekeeping gene).
(§2) The inventors have shown that retinoic acid increases the levels of PKCδVIII in NT2 cells. An apoptosis micro-array (SuperArray, catalog #PAHS-012A) was used to determine the profiles of proteins associated with the apoptotic cascade. RNA was isolated from control and RA (about 24 h) treated NT2 cells and used in the analysis. Real-time RT-PCR was performed according to the manufacturers' protocol and data was analyzed by SuperArray software (FIG. 4). The inventors observed about a 6-fold increase in Bcl-2 levels which were concurrent with an increase in PKCδVIII levels following RA treatment.

Bcl-2 = assay: as above; type: cell-based, human; details: RA about 24 h vs control
Source text: as §1, §2

Mcl-1 = assay: as above; type: cell-based, human; details: RA about 24 h vs control
Source text: as §1, §2

PKCδ promoter = assay: pGlow-PKCδ promoter reporter transfected into NT2 cells; type: cell-based, human; details: RA treatment
Source text: Computational analysis of PKCδ promoter indicated putative RAREs. pGlow-PKCδ promoter (gift from Dr. Stuart H. Yuspa, NCI) was transfected into NT2 cells to determine if RA regulates transcription of the PKCδ gene via RARE on the PKCδ promoter region. […] This was verified by western blot analysis using GFP antibody to confirm up-regulation of PKCδ promoter by ATRA treatment.

APP/PS1 transgenic mice = details: RA treatment; cited from earlier work

SMILES: CC1=C(/C=C/C(C)=C/C=C/C(C)=C/C(=O)O)C(C)(C)CCC1 [RA, all-trans-retinoic acid]
- levels of PKCδVIII (RT-PCR) (PKCδVIII): increased
- A1 levels (A1): Moderate increases
- increase in Bcl-2 levels (Bcl-2): ~6 fold
- Mcl-1 levels (Mcl-1): Moderate increases
- fluorescence of pGlow-PKCδ promoter compared to control samples (PKCδ promoter): four-fold increase
- APP phosphorylation and processing (APP/PS1 transgenic mice): decreased
- Aβ deposition (APP/PS1 transgenic mice): decreased
- activation of microglia and astrocytes (APP/PS1 transgenic mice): decreased
- neuronal degeneration (APP/PS1 transgenic mice): attenuated
- spatial learning and memory (APP/PS1 transgenic mice): improved
- tau phosphorylation (APP/PS1 transgenic mice): decreased
